Measurements from ChEMBL document CHEMBL3301458, “MMV Malaria Box hERG screening”.
The source made the active and inactive calls. How the calls were made is not given here.

Assays:
hERG (Kv11.1, KCNH2) [1] = biological target: T1, hERG (Kv11.1, KCNH2) (Homo sapiens, UniProt Q12809); experiment: in vitro
Description: MMV: Malaria Box compounds were tested for inhibition of the human ether a go-go related gene (hERG), Kv11.1 channel, using IonWorks 384-well patch clamp electrophysiology at 1.1uM (3 independent assay plates up to 12 cells per concentration).

hERG (Kv11.1, KCNH2) [2] = biological target: T1, hERG (Kv11.1, KCNH2); experiment: in vitro; remark: listed apart in the source
Description: MMV: Malaria Box compounds were tested for inhibition of the human ether a go-go related gene (hERG), Kv11.1 channel, using IonWorks 384-well patch clamp electrophysiology at 11.1uM (3 independent assay plates up to 12 cells per concentration).

T1 sequence (Q12809 whole entry): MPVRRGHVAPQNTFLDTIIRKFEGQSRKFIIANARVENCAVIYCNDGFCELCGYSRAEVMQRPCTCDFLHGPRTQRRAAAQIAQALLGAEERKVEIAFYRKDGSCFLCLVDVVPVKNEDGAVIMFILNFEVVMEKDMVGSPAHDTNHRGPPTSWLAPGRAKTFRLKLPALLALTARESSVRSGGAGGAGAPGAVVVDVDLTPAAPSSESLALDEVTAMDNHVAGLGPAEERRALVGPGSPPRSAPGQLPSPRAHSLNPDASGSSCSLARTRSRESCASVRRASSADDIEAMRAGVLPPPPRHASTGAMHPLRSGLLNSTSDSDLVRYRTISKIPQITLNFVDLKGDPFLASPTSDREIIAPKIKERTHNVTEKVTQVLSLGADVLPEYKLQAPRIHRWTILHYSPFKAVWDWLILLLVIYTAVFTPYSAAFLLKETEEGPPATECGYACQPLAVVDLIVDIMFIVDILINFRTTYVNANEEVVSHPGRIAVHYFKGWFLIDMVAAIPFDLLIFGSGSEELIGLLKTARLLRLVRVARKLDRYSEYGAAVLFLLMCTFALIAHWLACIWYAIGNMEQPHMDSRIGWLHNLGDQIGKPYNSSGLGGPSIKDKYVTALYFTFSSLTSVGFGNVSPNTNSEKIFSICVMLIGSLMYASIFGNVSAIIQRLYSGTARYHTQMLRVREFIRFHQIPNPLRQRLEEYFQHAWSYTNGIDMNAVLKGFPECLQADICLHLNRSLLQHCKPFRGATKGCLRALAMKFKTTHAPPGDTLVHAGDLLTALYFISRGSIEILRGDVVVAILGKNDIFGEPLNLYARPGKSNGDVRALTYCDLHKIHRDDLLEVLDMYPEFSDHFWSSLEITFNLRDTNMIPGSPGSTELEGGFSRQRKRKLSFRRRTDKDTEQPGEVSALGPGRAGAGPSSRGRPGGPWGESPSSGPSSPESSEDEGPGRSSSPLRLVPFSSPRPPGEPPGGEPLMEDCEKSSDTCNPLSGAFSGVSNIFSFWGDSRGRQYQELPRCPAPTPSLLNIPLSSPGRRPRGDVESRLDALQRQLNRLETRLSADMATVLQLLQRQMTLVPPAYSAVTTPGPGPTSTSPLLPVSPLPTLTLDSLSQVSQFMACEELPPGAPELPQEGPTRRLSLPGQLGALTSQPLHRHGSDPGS

Compound	inhibition at 1.1 µM (hERG (Kv11.1, KCNH2) [1])	inhibition at 11.1 µM (hERG (Kv11.1, KCNH2) [2])
Cc1ccc(Cn2c(N3CCC(C(=O)NCc4cccs4)CC3)nc3ccccc32)cc1	105%	103%
CCOc1ccc(N2C(N)=NC(N)=NC2(C)C)cc1	12%	6% (inactive)
COc1ccc(C2c3ccc4ccccc4c3Oc3ncn(CCCN(C)C)c(=N)c32)cc1 (stereo not given)	32%	86% (active)
COc1ccc(C2C(C(=O)Nc3cccc(OC)c3)c3ccccc3C(=O)N2C2CCCCC2)cc1 (stereo not given)	4%	70% (active)
CN1CCN(c2ncnc3c2[nH]c2ccc(Cl)cc23)CC1	15%	92% (active)
CCC(c1ccccc1)c1nn2c(-c3cccs3)nnc2s1 (stereo not given)	8%	42%
CCN(CC)CCNc1ncnc2c1[nH]c1ccc(Br)cc12	91%	102%
Cc1ccc(CSCc2ccc(C(=O)NC3CC3)o2)cc1	2%	26%
c1ccc(-c2ccc(-c3nc4ccccc4[nH]3)cc2)cc1	-2%	-8% (inactive)
Cc1ccc(Nc2nc(NCCO)c3ccccc3n2)cc1C	> 12%	81% (active)
CCOc1cc2c(cc1OCC)C(c1cc(Cl)c(O)c(OCC)c1)NCC2 (stereo not given)	1%	57% (active)
Cc1ccc(-c2cc3nc4c(c(O)n3n2)CCCC4)cc1	-4%	11% (inactive)
O=C(NC1CCN(Cc2ccccc2)CC1)c1cc(C(=O)NC2CCN(Cc3ccccc3)CC2)cc(C(=O)NC2CCN(Cc3ccccc3)CC2)c1	-2%	39%
Cc1ccc(NC(=O)Nc2cccc(Cl)c2)cc1F	-7%	-1% (inactive)
CCCc1c(CC)c(=N)c2ccccc2n1C	0%	26%
COc1cc(SC)ccc1C(=O)N1CCCC(C)C1 (stereo not given)	16%	8% (inactive)
CN(C)CCCNCc1ccc(-c2ccc(F)c(Cl)c2)o1	3%	48%
COc1ccc(C(=O)NC(c2ccc(Cl)cc2Cl)c2cc(Cl)c3cccnc3c2O)cc1 (stereo not given)	-3%	-12% (inactive)
Fc1ccc2[nH]c3c(NCCCN4CCOCC4)ncnc3c2c1	24%	77% (active)
O=C(Nc1ccc(Cl)cc1C(=O)Nc1ccncc1)c1ccc(Cl)cc1Cl	4%	39%
O=C(Nc1cccc(-c2nc3ccccc3[nH]2)c1)c1cccc(NC(=O)c2ccco2)c1	-6%	6% (inactive)
COc1ccc(C=C2SC(Nc3ccc(F)cc3)=NC2=O)c(OC)c1	44%	96% (active)
O=C(NCc1ccco1)C1CCN(S(=O)(=O)c2ccc(Br)cc2)CC1	21%	34%
c1ccc(Cn2c(N=Nc3c(Nc4ccccc4)ccc4ccccc34)nc3ccccc32)cc1	-2%	-2% (inactive)
Cc1cc(NC(=O)C2c3ccccc3C(=O)N(CC(C)C)C2c2cccs2)no1 (stereo not given)	4%	11% (inactive)

Compound	inhibition at 1.1 µM (hERG (Kv11.1, KCNH2) [1])	inhibition at 11.1 µM (hERG (Kv11.1, KCNH2) [2])
COc1ccc(/C=C2/SC(=Nc3ccccc3)NC2=O)cc1	12%	27%
CC(C)(C)c1ccc(O)c(CNC2CCCCC2)c1	10%	35%
COc1ccccc1C(=O)ON=C(N)Cc1cccc2ccccc12	2%	34%
CCOc1c(Br)cc(C2C(C(=O)OC)=CN(C)C=C2C(=O)OC)cc1OC	3%	21% (inactive)
CCCc1cc(O)c2c3c(c(=O)oc2c1)CN(C)CC3	46%	94% (active)
O=C(Nc1ccsc1C(=O)NC1CCCCC1)c1ccc(F)cc1	-3%	3% (inactive)
O=C1c2ccccc2-c2nnc(-c3ccc(Br)cc3)cc21	-3%	2% (inactive)
CCOc1cc2c(cc1OCC)C(c1cc(OC)c(O)cc1Cl)NCC2 (stereo not given)	10%	30%
COc1ccc(CN2CCN(Cc3ccccc3)CC2)c(O)c1	15%	66% (active)
O=C(CCc1ccco1)NC1CCN(CC2(c3ccc(Cl)cc3)CCC2)CC1	10%	65% (active)
CN1CCN(c2ccc(Nc3c4ccccc4nc4ccccc34)cc2)CC1	24%	75% (active)
CCOC(=O)c1c(C)n(-c2ccccc2)c2ccc(OC(=O)c3cc(OC)c(OC)c(OC)c3)cc12	-6%	11% (inactive)
COc1cccc(Nc2nc(N)c3ccccc3n2)c1	10%	9% (inactive)
CC(C)(C)c1ccc(C(=O)Nc2nc3ccccc3s2)cc1	-3%	7% (inactive)
OC1=C2C(=Nc3ccccc3SC2c2ccc(Br)cc2)c2ccccc21 (stereo not given)	3%	10% (inactive)
CCCCNc1nc(NC(C)(C)C)nc(NC(C)(C)C)n1	-1%	1% (inactive)
CCOc1ccccc1CN1CCc2nc3cc(C(C)(C)C)nn3c(O)c2C1	-1%	58% (active)
CCC(=O)Nc1nnc(Cc2ccc(OC)c(OC)c2)s1	-1%	-7% (inactive)
CCOC(=O)C1=C(C)N=c2sc(=Cc3cc(Cl)ccc3O)c(=O)n2C1c1ccc(OC)cc1 (stereo not given)	2%	2% (inactive)
CC(C)(C)C(=O)Nc1ccc(C(=O)Nc2cccc(-c3nc4ccccc4[nH]3)c2)cc1	8%	40%
CCOc1cc2c(cc1OCC)C(c1cc(C)c(O)c(C)c1)NCC2 (stereo not given)	13%	36%
Cc1ccc(F)cc1NC(=O)c1cc(Cl)ccc1Nc1ccccc1	5%	12% (inactive)
O=C1c2ccc3c4c(ccc(c24)C(=O)N1CCCCO)C(=O)N(CCCCO)C3=O	3%	37%
COc1ccc2nc(C)cc(Nc3ccccc3O)c2c1	18%	57% (active)
Cc1ccc(-c2cc3c(nn2)-c2ccccc2C3=O)cc1	14%	50% (active)

Compound	inhibition at 1.1 µM (hERG (Kv11.1, KCNH2) [1])	inhibition at 11.1 µM (hERG (Kv11.1, KCNH2) [2])
CCOC(=O)C1CCN(C(=O)CN2C(=O)c3ccccc3C2c2c[nH]c3ccccc23)CC1 (stereo not given)	-9%	18% (inactive)
Cc1ccc(-c2cc3c(SCC(=O)Nc4cc(C(F)(F)F)ccc4Cl)nccn3n2)cc1	2%	29%
N=c1n(CCN2CCCCC2)c2ccccc2n1CC(=O)c1ccc(Cl)c(Cl)c1	-13%	-1% (inactive)
Oc1ccc(Br)cc1CN1CCN(Cc2ccc(Cl)cc2)CC1	2%	10% (inactive)
CCOc1cc(Cl)c(C(C)NC(=O)c2ccccc2)cc1OCC (stereo not given)	-6%	7% (inactive)
Oc1ccccc1CNCC12CC3CC(CC(C3)C1)C2	20%	41%
COc1ccc(C=C2SC(=N)N(c3ccccc3OC)C2=O)cc1	7%	43%
COc1ccc(-c2nonc2NC(=O)c2cccc(Cl)c2)cc1OC	4%	-4% (inactive)
CNCCCNc1ccnc2cc(Cl)ccc12	-1%	21% (inactive)
CN(C)c1ccc(N2C(N)=NC(N)=NC2(C)C)cc1	10%	11% (inactive)
FC(F)(F)c1cccc(Nc2nc3ccccc3nc2Nc2cccc(C(F)(F)F)c2)c1	-4%	8% (inactive)
c1ccc2c(NCCc3c[nH]c4ccccc34)c3ccccc3nc2c1	64%	109%
O=C(Nc1ccccc1O)c1ccc(-c2ccc(Cl)cc2Cl)o1	1%	3% (inactive)
Cc1cc(C=C2SC(=Nc3ccccc3)N(C3CCCC3)C2=O)c(C)n1-c1ccc(Cl)cc1	5%	-5% (inactive)
COc1ccc(-c2nc(N3CCN(C(=O)C4CCCCC4)CC3)c3c4c(sc3n2)CCCC4)cc1	7%	17% (inactive)
Cc1cc(Nc2ccc(C)c(Cl)c2)n2nc(C(F)(F)F)nc2n1	23%	72% (active)
CCOc1ccc(CN2CCN(CC(O)COc3ccc(OCC(O)CN4CCN(Cc5ccc(OCC)cc5)CC4)cc3)CC2)cc1 (stereo not given)	70%	83%
Cc1cc(Nc2cccc(F)c2)nc(NCc2ccccc2)n1	11%	73% (active)
CCCCOc1ccc(C(=O)Nc2cc(C)on2)cc1	-2%	2% (inactive)
COc1cccc(Nc2nc(NCCO)c3ccccc3n2)c1	18%	57% (active)
COc1ccc(CNC2CCN(c3ccc(NC(=O)c4cccc(Cl)c4)cc3)CC2)cc1OC	84%	102%
FC(F)(F)c1cccc(CNC2CCN(CCc3ccccc3)CC2)c1	4%	97% (active)
Cc1ccc(Cl)cc1N1CCN(CCCNC(=O)C2CCN(c3nc4ccccc4[nH]3)CC2)CC1	54%	99%
Clc1ccc2c(N3CCCC3)ccnc2c1	38%	83% (active)
CCN(CC)S(=O)(=O)c1ccc(-c2csc(Nc3ccc(C)c(C)c3)n2)cc1	-7%	-3% (inactive)
